# From patent US20090215835A1, “TREATMENT OF CANCER WITH SORAFENIB” (priority 2005, published 2009)
# Key:
# Type in all cases: in vivo, human
# [1] = tested on: inoperable hepatocellular carcinoma (HCC); assay: Tumor response, TTP and survival in patients with inoperable hepatocellular carcinoma on oral sorafenib; conditions: 400 mg bid oral
# Method: (§1) Patients with inoperable hepatocellular carcinoma (HCC), no prior systemic treatment, and Child-Pugh (CP) score of A or B, received oral sorafenib at 400 mg bid continuously in 4-week cycles. Tumor response was assessed every two cycles using modified WHO criteria and independent radiologic review. Plasma samples were collected to evaluate the pharmacokinetics (PK) of sorafenib. Biomarker assays were performed in selected patients. These included phospho-ERK levels via immunohistochemistry in pretreatment biopsies, plasma HER-2/neu analysis, plasma protein proteomics via mass spectrometry, and blood cell RNA expression patterns via Affymetrix GeneChip microarray analysis.
# [2] = Drug-related toxicities in HCC patients on oral sorafenib; conditions: 400 mg bid oral
# Method: as §1
# [3] = Pharmacokinetics of sorafenib in plasma of HCC patients; conditions: Child-Pugh A versus B HCC patients, 400 mg bid oral
# Method: as §1
# [4] = 137 HCC patients, independent radiologic review
substance,measurement,setting,value
N-[4-chloro-3-(trifluoromethyl)phenyl]-N′-{4-[2-carbamoyl-1-oxo-(4-pyridyloxy)]phenyl}urea [sorafenib],patients who achieved a partial response,"[1]; 137 HCC patients, continuous 4-week cycles, independent radiologic review, modified WHO criteria",2.2%
same,patients who achieved a minor response,[1]; [4],5.8%
same,patients with stable disease for at least 16 weeks as best response,[1]; [4],33.6%
same,median overall survival,[1]; HCC patients,9.2 months
same,median TTP,"[1]; investigator-assessed, HCC patients",4.2 months
same,grade ¾ drug-related toxicity leading to dose delay and/or modification: diarrhea,[2],4.4%
same,grade ¾ drug-related toxicity leading to dose delay and/or modification: fatigue,[2],5.8%
same,grade ¾ drug-related toxicity leading to dose delay and/or modification: hand-foot skin reaction,[2],5.1%
same,pharmacokinetic differences between CP A and B patients,[3],no pharmacokinetic differences
